This is an account of results in a melting point compilation (Tetko et al.; mined from patent text by program, amines drawn as free bases though some values may be those of a salt).

A word on the melting point: it is the temperature, or range, at which the solid turns liquid. On to `CC(=O)NC1C(Oc2ncn(Cc3ccc([N+](=O)[O-])cc3)c2C(N)=O)OC(COC(C)=O)C(OC(C)=O)C1OC(C)=O` (configuration not stated), for which the melting point was in the range of 114 to 117 °C. Molecule `COc1ccccc1OC(=O)CNC(=O)C(C)SC(=O)c1cccs1` (configuration not stated) yielded a melting point of 90.5 to 92 °C. Regarding `N#Cc1ccccc1OCCCCC(=O)O`, the melting point fell in the range of 87 to 89 °C.

For the molecule `FC(F)(F)c1ccc(-c2ncn(CCCN3CCOCC3)c2-c2ccncc2)cc1`, the melting point came out at 133 °C. The value for `CC(C)(C)c1ccc(S(=O)(=O)N2c3ccccc3C[C@H]2C(=O)NCc2cccc(OCCC(=O)O)c2)cc1` was 122 °C; that for `COCCOC(=O)c1ccc(-c2ccc(N)cc2)c(C)c1` was 72 to 75 °C; that for `O=C(Nc1ccc2nc(CN3CCOCC3)ccc2c1)c1ccc(-c2ccc(F)cc2)cc1` was 211 to 212 °C. In turn, `O=c1[nH]c2cc(Cl)cc(Cl)c2c(=O)n1Cc1ccc(F)cc1` displayed a melting point of 301 to 304 °C. The value for `CCOC(=O)COC(=O)c1c(Cl)cccc1Cl` was 50 to 51 °C; that for `O=C(O)c1cn(CCO)c2cc(Cl)c(F)cc2c1=O` was 266 °C; that for `Cc1cc(NCc2ccc(Oc3ccc4ncc([N+](=O)[O-])n4n3)c(OCC3CC3)c2)nc(C)n1` was 113 to 118 °C. As to `Nc1cc2c3c(cc(N)cc3c1)C(=O)N(O)C2=O`, the melting point lay in the range of 329 to 336 °C.

Consider `Cc1cccc(CN2CCCN(C)C(=O)[C@H]2NC(=O)OCc2ccccc2)c1`, for which the melting point fell in the range of 70 to 71 °C. As for `O=[N+]([O-])c1ccccc1S`, the figure is 40 to 42 °C. The value for `Cc1oc(-c2ccccc2)nc1/C=C/c1ccc(COc2ccccc2CC(=O)O)cc1` was 189 to 190 °C. The value for `CC(=O)NNCC1CC2c3cccc4c3c(cn4C)CC2N(C)C1` (configuration not stated) was 190 to 192 °C. `N#CC=CC=CC(=O)C(F)(F)F` registered a melting point of 123 to 126 °C. Molecule `CNC(=S)C1=CC(C)(COC)Oc2ccc([N+](=O)[O-])cc21` (configuration not stated) yielded a melting point of 146 to 148 °C. `O=C(O)C1CCC(c2ccc(Cl)cc2)n2c(=O)n(CCS)c(=O)n21` (configuration not stated) displayed a melting point of 189 to 190 °C. The value for `Cc1cccc2c1N=C(Cl)c1cscc1O2` was 160 to 161 °C; that for `COc1cc(-c2cc(=O)c3cccnc3o2)ccc1O` was 253 to 255 °C. As for `Nc1nc(Cl)cc(CF)n1`, the figure is 159 °C; as for `CC(=O)c1ccc(-c2ccc(F)cc2F)c(F)c1`, 92 to 94 °C; as for `C=Cc1nc(C(=O)OC)c(Cl)c(N)c1F`, 68 to 71 °C. The molecule `N#CC1(c2cccs2)CC1` gave a melting point of 118 to 122 °C. With `CCn1c(=O)c(C(=O)NC)c(O)c2ccc(C)nc21`, the melting point was 150 to 154 °C. `Cc1ccc2c(c1)SC(C(F)(F)F)C(C(=O)O)=C2` (configuration not stated) registered a melting point of 187 to 192 °C.

Consider `Cc1cc2c(cc1Br)N1CCc3cccc(c31)C(N1CCN(C)CC1)=N2`, for which the melting point amounted to 177 °C. `CC(C)Oc1n[nH]cc1C(=O)NCc1ccc(Cl)cc1Cl`: the melting point is 185 to 186 °C. As for `CCCc1c(C#N)c2ccc(C(=O)O)cc2n1Cc1ccccc1Cl`, the figure is 240 to 241 °C; as for `COC(=O)c1ccc(-c2nc(-c3ccc(Br)cc3)cs2)cc1`, 206 to 207 °C; as for `CCOC(=O)CC(C)Sc1nnc(S)s1` (configuration not stated), 107 to 108 °C.

`CCCc1cccc(C(C)(C)C)c1O` displayed a melting point of 89 to 90 °C. As for `O=C(O)Cc1ccc2c(c1)C(=O)c1cc(F)ccc1CO2`, the figure is 173 to 175 °C; as for `CC1(C)CC1C(=O)NC(=CCCCCCBr)C(=O)O` (configuration not stated), 151 to 153 °C.

In turn, `O=C(c1ccc([N+](=O)[O-])c(O)c1)N1CCOCC1` registered a melting point of 106 °C.

`CCCCN(c1c([O-])[c+](N(CCCC)C2CC(C)(C)NC(C)(C)C2)[c+]1[O-])C1CC(C)(C)NC(C)(C)C1` displayed a melting point of 151 to 152 °C.
